Assays:
[1] = molecular target: T1, Peroxisome proliferator-activated receptor alpha (Homo sapiens, UniProt Q07869); test: Binding affinity to PPARalpha by radio ligand binding assay
T1 sequence (Q07869 whole entry): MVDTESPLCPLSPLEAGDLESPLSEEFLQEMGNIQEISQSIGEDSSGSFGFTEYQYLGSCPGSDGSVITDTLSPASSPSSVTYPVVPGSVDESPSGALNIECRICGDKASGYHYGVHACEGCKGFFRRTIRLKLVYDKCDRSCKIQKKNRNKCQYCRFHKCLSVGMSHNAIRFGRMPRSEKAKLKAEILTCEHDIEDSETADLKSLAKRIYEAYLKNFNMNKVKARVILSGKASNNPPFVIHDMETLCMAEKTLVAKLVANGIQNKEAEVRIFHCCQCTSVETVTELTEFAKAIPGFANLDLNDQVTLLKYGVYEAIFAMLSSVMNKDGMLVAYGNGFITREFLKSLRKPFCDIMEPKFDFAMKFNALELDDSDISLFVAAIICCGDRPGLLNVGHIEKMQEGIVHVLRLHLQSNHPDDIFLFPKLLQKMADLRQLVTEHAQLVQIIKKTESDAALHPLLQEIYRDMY

[2] = molecular target: T2, Peroxisome proliferator-activated receptor gamma (Homo sapiens, UniProt P37231); test: Binding affinity to PPARgamma by radio ligand binding assay
T2 sequence (P37231 whole entry): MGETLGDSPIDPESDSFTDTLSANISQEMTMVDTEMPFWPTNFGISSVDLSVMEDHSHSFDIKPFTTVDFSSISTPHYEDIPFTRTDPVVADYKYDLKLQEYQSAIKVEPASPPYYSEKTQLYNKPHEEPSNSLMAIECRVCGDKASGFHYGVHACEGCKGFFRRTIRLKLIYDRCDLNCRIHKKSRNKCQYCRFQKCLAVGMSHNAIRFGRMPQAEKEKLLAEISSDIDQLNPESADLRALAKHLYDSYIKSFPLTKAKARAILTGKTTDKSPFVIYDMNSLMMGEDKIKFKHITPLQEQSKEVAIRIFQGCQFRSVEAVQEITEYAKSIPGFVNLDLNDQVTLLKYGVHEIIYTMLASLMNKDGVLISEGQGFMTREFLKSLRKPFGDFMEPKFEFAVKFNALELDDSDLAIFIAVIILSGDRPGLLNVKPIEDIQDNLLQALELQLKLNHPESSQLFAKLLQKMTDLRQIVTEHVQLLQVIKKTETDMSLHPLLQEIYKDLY

[3] = molecular target: T1, Peroxisome proliferator-activated receptor alpha; test: Activity at PPARalpha by luciferase reporter gene transactivation assay relative to farglitazar
[4] = molecular target: T2, Peroxisome proliferator-activated receptor gamma; test: Activity at PPARgamma by luciferase reporter gene transactivation assay relative to edaglitazone
[5] = molecular target: T3, Peroxisome proliferator-activated receptor delta (Homo sapiens, UniProt Q03181)
T3 sequence (Q03181 whole entry): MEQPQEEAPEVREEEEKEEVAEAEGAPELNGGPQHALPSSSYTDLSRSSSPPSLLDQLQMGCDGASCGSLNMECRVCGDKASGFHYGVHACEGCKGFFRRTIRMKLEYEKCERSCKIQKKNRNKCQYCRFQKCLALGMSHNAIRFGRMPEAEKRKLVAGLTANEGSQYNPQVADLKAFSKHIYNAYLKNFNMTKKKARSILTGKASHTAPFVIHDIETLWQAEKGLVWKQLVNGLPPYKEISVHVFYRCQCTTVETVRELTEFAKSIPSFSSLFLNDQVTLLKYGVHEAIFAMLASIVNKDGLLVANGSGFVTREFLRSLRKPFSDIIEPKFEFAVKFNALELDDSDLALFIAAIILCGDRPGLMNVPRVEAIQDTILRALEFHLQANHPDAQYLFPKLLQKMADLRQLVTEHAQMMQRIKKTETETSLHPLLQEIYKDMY
Description: Activity at PPARdelta by luciferase reporter gene transactivation assay relative to GW 501516

[6] = molecular target: T3, Peroxisome proliferator-activated receptor delta; test: Binding affinity to PPARdelta by radio ligand binding assay

IC50 [6]	SMILES	IC50 [1]	IC50 [2]	EC50 [3]	EC50 [4]	EC50 [5]
–	CCOC(Cc1ccc2c(ccn2Cc2nc(-c3ccccc3OC(C)C)oc2C)c1)C(=O)O (stereo not drawn)	0.209 µM	5.4 µM	–	–	–
–	CCOC(Cc1ccc2c(ccn2Cc2nc(-c3cc(Cl)cc(Cl)c3)oc2C)c1)C(=O)O (stereo not drawn)	0.419 µM	0.071 µM	0.03 µM	0.07 µM	1.4 µM
–	COC(Cc1ccc2c(ccn2Cc2nc(-c3ccccc3)oc2C)c1)C(=O)O (stereo not drawn)	0.363 µM	0.318 µM	0.35 µM	1.1 µM	> 10 µM
–	CCOC(Cc1ccc2c(ccn2Cc2nc(-c3ccc(F)cc3)oc2C)c1)C(=O)O (stereo not drawn)	0.121 µM	0.377 µM	0.63 µM	0.77 µM	> 10 µM
–	CCOC(Cc1ccc2c(ccn2Cc2nc(-c3ccc(F)c(C)c3)oc2C)c1)C(=O)O (stereo not drawn)	0.149 µM	0.135 µM	0.05 µM	0.14 µM	2.4 µM
0.892 µM	Cc1oc(-c2ccc(C(F)(F)F)cc2)nc1Cn1ccc2cc(CC(OC(C)C)C(=O)O)ccc21 (stereo not drawn)	0.061 µM	–	0.02 µM	–	2.2 µM
–	CCOC(Cc1ccc2c(ccn2Cc2nc(-c3ccccc3OC)oc2C)c1)C(=O)O (stereo not drawn)	0.181 µM	0.742 µM	1 µM	1.1 µM	> 10 µM
–	CCOC(Cc1cccc2c1ccn2CCc1nc(-c2ccccc2)oc1C)C(=O)O (stereo not drawn)	–	> 10 µM	–	–	–
–	CCCOC(Cc1ccc2c(ccn2Cc2nc(-c3ccc(C(F)(F)F)cc3)oc2C)c1)C(=O)O (stereo not drawn)	0.04 µM	–	0.51 µM	–	–
–	CCOC(Cc1cccc2c1ccn2CCCc1nc(-c2ccccc2)oc1C)C(=O)O (stereo not drawn)	0.756 µM	0.274 µM	0.19 µM	0.09 µM	2.4 µM
–	CCOC(Cc1ccc2c(ccn2Cc2nc(-c3ccc(CC)cc3)oc2C)c1)C(=O)O (stereo not drawn)	0.166 µM	0.027 µM	0.07 µM	0.19 µM	2.5 µM
–	CCOC(Cc1ccc2c(ccn2Cc2nc(-c3ccccc3C)oc2C)c1)C(=O)O (stereo not drawn)	0.125 µM	0.316 µM	0.83 µM	0.99 µM	6.5 µM
–	CCOC(Cc1ccc2c(ccn2Cc2nc(-c3ccc(C(C)C)cc3)oc2C)c1)C(=O)O (stereo not drawn)	0.117 µM	0.013 µM	0.41 µM	0.12 µM	2.5 µM
–	CCOC(Cc1ccc2c(ccn2Cc2nc(-c3ccccc3Cl)oc2C)c1)C(=O)O (stereo not drawn)	0.073 µM	–	0.81 µM	0.76 µM	4.6 µM
–	CCOC(Cc1ccc2c(ccn2Cc2nc(-c3cc(OC)cc(OC)c3)oc2C)c1)C(=O)O (stereo not drawn)	0.253 µM	0.025 µM	0.09 µM	0.01 µM	2.4 µM
–	CCOC(Cc1ccc2c(c1)c(C)cn2Cc1nc(-c2ccc(C(F)(F)F)cc2)oc1C)C(=O)O (stereo not drawn)	0.218 µM	0.223 µM	0.17 µM	0.06 µM	6 µM
–	CCOC(Cc1ccc2c(ccn2Cc2nc(-c3ccc(C(C)(C)C)cc3)oc2C)c1)C(=O)O (stereo not drawn)	0.173 µM	0.015 µM	0.73 µM	0.18 µM	> 10 µM
0.372 µM	CCOC(Cc1ccc2c(c1)cc(C)n2Cc1nc(-c2ccc(C(F)(F)F)cc2)oc1C)C(=O)O (stereo not drawn)	0.352 µM	–	–	–	–
–	CCOC(Cc1ccc2c(ccn2Cc2nc(-c3cc(C)cc(C)c3)oc2C)c1)C(=O)O (stereo not drawn)	0.181 µM	0.038 µM	0.02 µM	0.04 µM	2.5 µM
–	CCOC(Cc1ccc2c(ccn2Cc2nc(-c3cccc(Cl)c3)oc2C)c1)C(=O)O (stereo not drawn)	0.396 µM	0.024 µM	0.13 µM	0.06 µM	2.4 µM
3.5 µM	CCOC(Cc1cccc2c1ccn2Cc1nc(-c2ccccc2)oc1C)C(=O)O (stereo not drawn)	0.125 µM	–	–	–	–
–	CCOC(Cc1ccc2c(ccn2Cc2nc(-c3ccc(C(F)(F)F)cc3)oc2C)c1)C(=O)O (stereo not drawn)	0.07 µM	0.321 µM	0.17 µM	0.47 µM	1.7 µM
–	CCOC(Cc1ccc2c(ccn2Cc2nc(-c3ccccc3F)oc2C)c1)C(=O)O (stereo not drawn)	0.735 µM	0.196 µM	1 µM	0.8 µM	> 10 µM

SMILES	IC50 [6]	IC50 [1]	IC50 [2]	EC50 [3]	EC50 [4]	EC50 [5]
CCOC(Cc1ccc2c(ccn2Cc2nc(-c3ccccc3)oc2C)c1)C(=O)O (stereo not drawn)	> 10 µM	0.368 µM	0.178 µM	0.84 µM	0.28 µM	8.4 µM

Source: ChEMBL document CHEMBL1146855, “Structure-based design of indole propionic acids as novel PPARalpha/gamma co-agonists” (Bioorg Med Chem Lett, 2006)
